According to PubChem BioAssay AID2060358 (Molecular Pharmacology Branch, DTP, NCI, 2025):
Where “and” joins values, the source holds several entries; their conditions need not be identical. Identical values can stand only once.

Test system: 254851-301-R-J1-PDC spheroids, viability % test/control
Test: Anticancer human tumor 254851-301-R-J1-PDC patient-derived colon carcinoma cell line growth inhibition [TAK]
Settings: spheroids with HUVEC and MSC; for viability, T/C: stronger effect = lower value; active = viability on the fitted dose curve at most 10% of control; inactive = the rest
Text: Combinatorial screen of targeted agents with TAK-243 and ipatasertib in multi-cell type tumor spheroids
A high-throughput screen of multi-cell type tumor spheroids was designed to identify active combinations of targeted small molecules and TAK-243 or ipatasertib. Complex spheroids include a stromal component modeled by human endothelial cells (HUVEC) and fibroblasts modeled by human mesenchymal stem cells (MSCs). The concentration ranges selected for each drug and investigational agent were based upon clinically achievable concentrations if the clinical Cmax of the agent was known.
Compounds. The drugs and investigational agents: TAK-243 (785004), ipatasertib (767898), everolimus (733504), selumetinib (741078), bortezomib (756655), trametinib (758246), ixazomib (758254), vemurafenib (761431), dabrafenib (764134), sapanisertib (764658), alpelisib (765974), and copanlisib (816437), were obtained from the National Cancer Institute (NCI) Developmental Therapeutics Program Chemical Repository. The FDA-approved anticancer drug set is available from the NCI Developmental Therapeutics Program. […] The stock solutions were prepared in dimethyl sulfoxide (DMSO, Sigma-Aldrich, St. Louis, MO, cat. D2650) at 800-fold the tested concentration and stored at -70 degrees C prior to their use. All drugs and investigational agents were tested over a range starting from a high concentration at or near the clinical Cmax and decreasing in half-log increments. If the clinical Cmax for an agent had not been determined, the highest concentration tested was 10 microM.
NCI60 Cell Culture. NCI60 cell lines were obtained from the NCI Developmental Therapeutics Program Tumor Repository. For each lot of cells, the Repository performed Applied Biosystems AmpFLSTR Identifiler testing with PCR amplification to confirm consistency with the published Identifier STR profile for each cell line. Cells were kept in continuous culture for no more than 20 passages. The optimal seeding densities for each of the cell lines at each time point assessed were determined prior to performing the concentration response studies. Briefly, the NCI60 human tumor lines were grown as monolayers in RPMI 1640 medium supplemented with 10% FBS and 2 mmol/L L-glutamine.
An additional 2 lines were from the NCI60 cell line panel including melanomas, MALME-3M and SK-MEL-2. Pooled donor human umbilical vein endothelial cells (HUVEC, Lonza, cat. CC-2519) and human mesenchymal stem cells (hMSC, Lonza, cat. PT-2501) were purchased from Lonza (Walkersville, MD).
PDMR cell lines were grown in complete medium (DC medium): Dulbecco's modified Eagle's medium (DMEM)/F12 supplemented with 5% fetal bovine serum (FBS), 2 mM L-glutamine, 100 U/mL penicillin and 100 µg/ml streptomycin, 0.4 µg/ml hydrocortisone, 10 ng/ml epidermal growth factor (EGF) recombinant human protein, 24 µg/mL adenine, and 0.1 mg/mL primocin. During culture from frozen stock vials, PDMR cells were cultured in the same medium containing 10 µM Y-27632 (see Table 3). The PDCs were cultured in complete DMEM/F12 media without 10 microM Y-27632 dihydrochloride for at least two passages prior to the screen. The pooled donor HUVEC and hMSC were cultured in endothelial cell growth medium 2 (PromoCell, Heidelberg, Germany, cat. C-22011) and mesenchymal stem cell growth medium 2 (PromoCell, cat. C-28009), respectively. For all experiments, HUVEC and hMSC were used at passages </=5.
For the pre-screen, cell seeding densities were determined from a titration spanning the range from 5,000 to 313 cells per well. The mct-spheroids including 60% malignant cells, 25% HUVEC and 15% MSC dispensed as a mixture into U-bottom Ultra-Low Attachment 384-well plates (Corning, NY)
High-throughput Drug Combination Screening.
Prior to their inoculation into 384-well plates, malignant cells, HUVEC, and hMSC were removed from T flasks using TrypLE express (Thermo Fisher Scientific, cat. 12605036) and harvested by centrifugation for 5 min at 233 x g. […]
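Also: spheroids exposed to drugs for seven days before viability readout.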

CC(=O)Nc1cccc(-n2c(=O)n(C3CC3)c(=O)c3c(Nc4ccc(I)cc4F)n(C)c(=O)c(C)c32)c1
inactive: viability, T/C (compound 94.9 pM) 117% and 114% | viability, T/C (compound 0.0003 µM) 114% and 116% | viability, T/C (compound 0.000949 µM) 105% and 107% | viability, T/C (compound 0.003 µM) 117% and 99% | viability, T/C (compound 0.00949 µM) 97.5% and 83.9% | viability, T/C (compound 0.03 µM) 16.8% and 18.9%
18.7 nM and 17 nM: IC50 (curve of compound)

CC(C)(C)c1nc(-c2cccc(NS(=O)(=O)c3c(F)cccc3F)c2F)c(-c2ccnc(N)n2)s1
inactive: viability, T/C (compound 0.0316 µM) 116% and 118% | viability, T/C (compound 0.1 µM) 105% | viability, T/C (compound 0.316 µM) 92.3% and 86.4% | viability, T/C (compound 1 µM) 82.1% and 82.5% | viability, T/C (compound 3.16 µM) 86.8% and 82.2% | viability, T/C (compound 10 µM) 80.3% and 77.6%
> 10000 nM: IC50 (curve of compound)

CC(C)CC(NC(=O)C(Cc1ccccc1)NC(=O)c1cnccn1)B(O)O (configuration not stated)
> 10 nM: IC50 (curve of compound)
inactive: viability, T/C (compound 31.6 pM) 118% and 114% | viability, T/C (compound 0.0001 µM) 107% | viability, T/C (compound 0.000316 µM) 111% and 101% | viability, T/C (compound 0.001 µM) 98.9% and 100% | viability, T/C (compound 0.00316 µM) 98.5% and 99.1% | viability, T/C (compound 0.01 µM) 75.7% and 80.8%

CC(C)CC(NC(=O)CNC(=O)c1cc(Cl)ccc1Cl)B1OC(=O)CC(CC(=O)O)(C(=O)O)O1 (configuration not stated)
53.2 nM and 58.1 nM: IC50 (curve of compound)
inactive: viability, T/C (compound 0.000316 µM) 110% and 112% | viability, T/C (compound 0.001 µM) 110% | viability, T/C (compound 0.00316 µM) 96.8% and 99.7% | viability, T/C (compound 0.01 µM) 94.7% and 102% | viability, T/C (compound 0.0316 µM) 78.2% | viability, T/C (compound 0.1 µM) 18.6% and 24.4%

CC(C)NCC(C(=O)N1CCN(c2ncnc3c2C(C)CC3O)CC1)c1ccc(Cl)cc1 (configuration not stated)
inactive: viability, T/C (compound 0.3 µM) 91.8% [middle of 10 runs] | viability, T/C (compound 0.949 µM) 91.8% [middle of 10 runs] | viability, T/C (compound 3 µM) 95% [middle of 10 runs] | viability, T/C (compound 9.49 µM) 91.9% [middle of 10 runs] | viability, T/C (compound 30 µM) 86% [middle of 10 runs]
> 30000 nM: IC50 (compound alone, run of 02/28/2020) | IC50 (compound alone, run of 03/19/2020)

CC(C)n1nc(-c2ccc3oc(N)nc3c2)c2c(N)ncnc21
inactive: viability, T/C (compound 0.000316 µM) 125% and 110% | viability, T/C (compound 0.001 µM) 104% and 109% | viability, T/C (compound 0.00316 µM) 89.8% and 90.4% | viability, T/C (compound 0.01 µM) 76.5% and 81.7% | viability, T/C (compound 0.0316 µM) 55.7% and 52.2% | viability, T/C (compound 0.1 µM) 34.5% and 34.2%
42.5 nM and 40.3 nM: IC50 (curve of compound)

CCCS(=O)(=O)Nc1ccc(F)c(C(=O)c2c[nH]c3ncc(-c4ccc(Cl)cc4)cc23)c1F
inactive: viability, T/C (compound 0.316 µM) 109% and 106% | viability, T/C (compound 1 µM) 93.3% and 90.5% | viability, T/C (compound 3.16 µM) 84.6% and 79.4% | viability, T/C (compound 10 µM) 72.3% and 77.4% | viability, T/C (compound 31.6 µM) 73.7% and 71.4% | viability, T/C (compound 100 µM) 63.9% and 73.8%
> 100000 nM: IC50 (curve of compound)

COC1CC2CCC(C)C(O)(O2)C(=O)C(=O)N2CCCCC2C(=O)OC(C(C)CC2CCC(OCCO)C(OC)C2)CC(=O)C(C)C=C(C)C(O)C(OC)C(=O)C(C)CC(C)C=CC=CC=C1C (configuration not stated)
inactive: viability, T/C (compound 0.000316 µM) 114% and 108% | viability, T/C (compound 0.001 µM) 109% and 92% | viability, T/C (compound 0.00316 µM) 101% and 89.6% | viability, T/C (compound 0.01 µM) 101% and 91.6% | viability, T/C (compound 0.0316 µM) 96% and 85.4% | viability, T/C (compound 0.1 µM) 98.1% and 84%
> 100 nM: IC50 (curve of compound)

COc1c(OCCCN2CCOCC2)ccc2c3n(c(=NC(=O)c4cnc(N)nc4)nc12)CCN3
inactive: viability, T/C (compound 0.00316 µM) 110% and 106% | viability, T/C (compound 0.01 µM) 96.2% and 96.4% | viability, T/C (compound 0.0316 µM) 87.8% and 82.2% | viability, T/C (compound 0.1 µM) 78% and 71.7% | viability, T/C (compound 0.316 µM) 75.6% and 65.8% | viability, T/C (compound 1 µM) 59.5% and 56.5%
> 1000 nM: IC50 (curve of compound)

Cc1nc(NC(=O)N2CCCC2C(N)=O)sc1-c1ccnc(C(C)(C)C(F)(F)F)c1 (configuration not stated)
> 10000 nM: IC50 (curve of compound)
inactive: viability, T/C (compound 0.0316 µM) 123% and 110% | viability, T/C (compound 0.1 µM) 103% and 110% | viability, T/C (compound 0.316 µM) 95.7% and 91.7% | viability, T/C (compound 1 µM) 92.6% and 92.3% | viability, T/C (compound 3.16 µM) 84% and 79.1% | viability, T/C (compound 10 µM) 70.8% and 71.9%

Cn1cnc2c(F)c(Nc3ccc(Br)cc3Cl)c(C(=O)NOCCO)cc21
inactive: viability, T/C (compound 0.00949 µM) 119% and 114% | viability, T/C (compound 0.03 µM) 120% and 117% | viability, T/C (compound 0.0949 µM) 105% and 117% | viability, T/C (compound 0.3 µM) 103% and 98.6% | viability, T/C (compound 0.949 µM) 76.3% and 84.4% | viability, T/C (compound 3 µM) 12.5% and 22.5%
1510 nM and 1760 nM: IC50 (curve of compound)
